US20220175761A1, “BI-LIGAND DRUG CONJUGATE AND USE THEREOF” (COHERENT BIOPHARMA (SUZHOU), LIMITED, priority 2019, published 2022)
Numbered stars: 1 amine (or outer) side, 2 acyl side, 3 side chain; on linkers, the order of the positions; unused ones are H or OH. Bridge positions count the residues as written; N and C are the ends. Square brackets hold non-standard residues; d marks the D form. Side chains are listed from the residue outwards. Peptide text beside a SMILES is read from it. I, II: the chains in the order shown. * marks the point of attachment. EuK = O=C(O)CC[C@H](NC(=O)N[C@@H](CCCCN*)C(=O)O)C(=O)O; Pteroyl = Nc1nc2ncc(CNc3ccc(C(=O)*)cc3)nc2c(=O)[nH]1; Dolaproine = CO[C@@H]([C@@H]1CCCN1)[C@@H](C)C(=O)O; Dil = CC[C@H](C)[C@H](NC)[C@@H](CC(=O)O)OC; X3 = O=C1CC([*:2])C(=O)N1CCCCCC(=O)[*:1]; γGlu = O=C(O)[C@H](CCC(=O)[*:2])N[*:1]; PABC = O=C(OCc1ccc(N[*:1])cc1)[*:2]; X1 = C[C@@H](N*)[C@@H](O)c1ccccc1; X2 = O=C(Cc1ccc(CN[*:1])cc1)[*:2]; Cit = NC(=O)NCCC[C@H](N)C(=O)O; NMeV = CN[C@H](C(=O)O)C(C)C; CO = O=C([*:1])[*:2]

Columns and labels:
[1] = test system: KB, PC-9 and DU145 cell lines (CDX tumor models); assay: Pharmacodynamic study of CB-20B in CDX models; type: in vivo, BALB/c-nude mice; settings: tail vein injection
Procedure: CB-20B lyophilized powder was weighed, dissolved with PBS and prepared into a sample mother solution, and the mother solution was diluted with a physiological saline for injection to a sample solution with a working concentration for later use.
Main cell lines: KB human oral epidermoid carcinoma cells, PC-9 human lung cancer cells and DU145 human prostate cancer cells.
Model construction: The cells were resuscitated, cultured, collected, counted, and subcutaneously injected into the right flank of BALB/c-nude mice. When the tumor grew and expanded to 80-160 mm^3, grouping and administration were performed, or rapidly expanded tumor masses were transferred and injected to mice for scale up.
(§1) Grouping: When the tumor grew to about 80-160 mm^3 on average, a grouping was performed, and a model control group and different doses of administration groups were set.
(§2) Administration: The mice were administrated via tail vein injection.
(§3) The weight of mice and the long diameter (a) and short diameter (b) of tumor mass were measured twice a week. The formula for the calculation of tumor volume (TV) is: TV=½×a×b^2.

[2] = test system: A549, HuH-7, KB, LNcap, DU145 and T-47D tumor cell lines; assay: Inhibition of tumor cell expansion, CCK8 (CB-20B); type: cell-based, human
Procedure: Cell lines: A549 human lung cancer cells, HuH-7 human liver cancer cells, KB human oral epidermoid carcinoma cells, LNCaP human prostate cancer cells, DU145 human prostate cancer cells and T-47D human breast cancer cells
The cells were prepared in advance, digested with trypsin, collected and counted; diluted with a complete cell culture medium, A549 cells, HuH-7 cells, KB cells and DU145 cells were plated at a density of 2×10^4 cells/ml, T-47D cells were plated at a density of 1×10^5 cells/ml, and LNCaP cells were plated at a density of 6×10^4 cells/ml in 96-well plates; 100 μl of the diluted cell solution was added to each well; and negative control and blank control wells were set on each plate. The 96-well plates added with the cells were placed in an incubator at 37° C., 5% CO2 for culturing overnight.
The samples were diluted with a culture medium to desired concentrations (see Table 11). […]
(§4) To each well, 15 μl (10% of the liquid volume in a well) of a color developing solution from CCK-8 was added; the plates were incubated at 37° C. for an appropriate time (try to keep the OD value in the range of 1.0-2.0); the covers of the 96-well plates were removed, and the plates were read at 450 nm on a microplate reader (Molecular Devices Spectra MAX Plus). […]

[3] = test system: KB, PC-9, SPC-A1, CALU-3 and DU145 cell lines (CDX tumor models); assay: Pharmacodynamic study of CB-18G in CDX models; type: in vivo, BALB/c-nude mice; settings: tail vein injection
Procedure: CB-18G lyophilized powder was weighed, dissolved with PBS and prepared into a sample mother solution, and the mother solution was diluted with a physiological saline for injection to a sample solution with a working concentration for later use.
Main cell lines: KB human oral epidermoid carcinoma cells, PC-9 human lung cancer cells, SPC-A1 human lung adenocarcinoma cells, CALU-3 human lung adenocarcinoma cells and DU145 human prostate cancer cells
Model construction: The cells were resuscitated, cultured, collected and counted, and the cell solution was subcutaneously injected into the right flank of BALB/c-nude mice. When the tumor grew and expanded to 80-160 mm^3, grouping and administration were performed, or rapidly expanded tumor masses were transferred and injected to mice for scale up.
as §1, §2, §3

[4] = test system: A549, Hela, SCLC-21H, U-2 OS, T-47D and NCI-H460 tumor cell lines; assay: Inhibition of tumor cell expansion, CCK8 (CB-18G); type: cell-based, human
Procedure: Cell lines: A549 human lung cancer cells, Hela human cervical cancer cells, SCLC-21H small cell lung cancer cells, U-2 OS human osteosarcoma cells, T-47D human breast cancer cells and NCI-H460 human lung cancer cells
The cells were prepared in advance, digested with trypsin, collected and counted; diluted with a complete cell culture medium, A549 cells, Hela cells, SCLC-21H cells and U-2 OS cells were plated at a density of 2×10^4 cells/ml, and T-47D cells and NCI-H460 cells were plated at a density of 3×10^4 cells/ml in 96-well plates; to each well of the 96-well plates, 100 μl of the diluted cell solution was added; and negative control and blank control wells were set on each plate. The 96-well plates added with the cells were placed in an incubator at 37° C., 5% CO2 for culturing overnight.
The samples were diluted with a culture medium to desired concentrations (see Table 15). […]
as §4

SMILES	inhibitory effect in CDX tumor models (tumor volume) [1]	inhibitory effect on growth and expansion of tumor cell lines ([2]; 72 hours, CCK-8)	IC50 compared between cell lines ([2]; T-47D, LNcap, KB, HuH-7 and DU145 versus A549)	inhibitory effect in CDX tumor models (tumor volume) [3]	inhibitory effect on growth and expansion of tumor cell lines ([4]; 72 hours, CCK-8)	IC50 compared between cell lines ([4]; Hela versus NCI-H460)
CC[C@H](C)[C@@H]([C@@H](CC(=O)N1CCC[C@H]1[C@H](OC)[C@@H](C)C(=O)N[C@H](C)[C@@H](O)c1ccccc1)OC)N(C)C(=O)[C@@H](NC(=O)[C@H](C(C)C)N(C)C(=O)OCc1ccc(NC(=O)[C@H](CCCNC(N)=O)NC(=O)[C@@H](NC(=O)CCCCCN2C(=O)CC(SC[C@H](NC(=O)[C@H](CC(=O)O)NC(=O)[C@H](CC(=O)O)NC(=O)Cc3ccc(CNC(=O)NCCCC[C@H](NC(=O)N[C@@H](CCC(=O)O)C(=O)O)C(=O)O)cc3)C(=O)N[C@@H](CCCCNC(=O)CC[C@H](NC(=O)c3ccc(NCc4cnc5[nH]c(N)nc(=O)c5n4)cc3)C(=O)O)C(N)=O)C2=O)C(C)C)cc1)C(C)C (stereo partly drawn) [CB-20B] (I: V[Cit][PABC][NMeV]V[Dil][Dolaproine]-X1 / II: {EuK-CO}-[X2]DDCK([γGlu-Pteroyl])-NH2; linker I:N-II:4 via X3)	good inhibitory effect	has an inhibitory effect	significantly lower	–	–	–
CCCC(=O)N[C@@H](Cc1ccccc1)C(=O)N[C@H]1CSSC[C@@H](C(=O)N[C@H](C(=O)N[C@@H](CCCCNC(=O)[C@H](CCC(=O)O)NC(=O)CCOCCOCCOCCOCCNC(=O)[C@H](CCC(=O)O)NC(=O)[C@H](CSC2CC(=O)N(CCCCCC(=O)N[C@H](C(=O)NC(CCCNC(N)=O)C(=O)Nc3ccc(COC(=O)N(C)[C@H](C(=O)N[C@H](C(=O)N(C)[C@@H]([C@@H](C)CC)[C@@H](CC(=O)N4CCC[C@H]4[C@H](OC)[C@@H](C)C(=O)N[C@H](C)[C@@H](O)c4ccccc4)OC)C(C)C)C(C)C)cc3)C(C)C)C2=O)NC(=O)CC[C@H](NC(=O)c2ccc(NCc3cnc4[nH]c(N)nc(=O)c4n3)cc2)C(=O)O)C(N)=O)[C@@H](C)O)NC(=O)[C@H]([C@@H](C)O)NC(=O)[C@H](CCCCN)NC(=O)[C@H](Cc2c[nH]c3ccccc23)NC(=O)[C@H](Cc2ccc(O)cc2)NC1=O (stereo partly drawn) [CB-18G]	–	–	–	good inhibitory effect	has an inhibitory effect	significantly lower
